Target: T1, CBI receptor (Rattus norvegicus, UniProt P20272)
T1 construct: Preparation of CBI receptor membrane protein in cerebellum of rat; from tissue; host or cells: Wistar rat cerebellum membranes
Test: Drug and CBI receptor competition binding experiment (rat cerebellum membrane protein)
Details: CBI receptor membrane protein from Wistar rat cerebellum; 30° C. for 1 hour; 1×10^−7 to 1×10^−11 mole concentration; read-out: antagonistic concentration of 50% (EC50) to CBI receptor
Protocol: 2.1 Preparation of CBI receptor membrane protein in cerebellum of rat: Wistar rat, 220-260 g, female and male being not limited, was killed by cutting head, its cerebellum was separated rapidly, weighted and added to a buffer of Tris-HCl in 10 times of volume (50 mM, Tris HCl, 5 mM MgCl2.6H2O, 1 mM EDTA, 0.5% (W/V) BSA, pH 7.4), homogenized by using homogenizer at 15000 rpm/min, 30 seconds once, 5 times in total. The homogenized liquid was centrifuged at 400×g for 10 minutes, the supernatant was centrifuged at 39000×g for 10 minutes, the precipitate was collected, re-suspended with Tris-HCl buffer of pH 7.4 in 10 times of volume of the original weight, and centrifuged at 39000×g for 10 minutes, the precipitate was washed with the same buffer, and centrifuged at 39000×g for 10 minutes, the resultant precipitate was washed with Tris-HCl. […]
100 μg of receptor protein, 20 μl of the compound in Example 1 in mole concentration of 1×10^−7, 1×10^−8, 1×10^−9, 1×10^−10 and 1×10^−11, respectively were added successively, reacted at 30° C. for 1 hour, the sample was spotted on glass fiber filtration membrane, filtrated under negative pressure, washed with cold buffer for 10 times, 2 ml per time, the filtration membrane was unwatered, dried over oven, and placed in scintillation bottle, added 1 ml scintillating liquid, the radioactivity strength was detected by LS6500 scintillation counter.

T1 sequence (P20272 whole entry): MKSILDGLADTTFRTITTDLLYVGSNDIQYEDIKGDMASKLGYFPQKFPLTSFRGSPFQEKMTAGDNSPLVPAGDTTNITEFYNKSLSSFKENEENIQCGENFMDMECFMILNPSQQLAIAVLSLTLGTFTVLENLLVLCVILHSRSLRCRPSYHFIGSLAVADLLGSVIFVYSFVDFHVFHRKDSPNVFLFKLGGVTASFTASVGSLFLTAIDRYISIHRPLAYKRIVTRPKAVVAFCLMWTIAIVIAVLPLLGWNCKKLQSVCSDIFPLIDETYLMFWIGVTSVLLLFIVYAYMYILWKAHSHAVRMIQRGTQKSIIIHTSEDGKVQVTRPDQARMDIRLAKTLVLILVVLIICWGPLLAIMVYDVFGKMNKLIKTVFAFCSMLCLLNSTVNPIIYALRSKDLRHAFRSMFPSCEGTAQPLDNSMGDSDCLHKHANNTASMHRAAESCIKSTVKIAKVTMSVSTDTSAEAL

EC50: 0.13 nM
SMILES: Cc1c(C(=O)NCc2cccnc2)nn(-c2ccc(Cl)cc2Cl)c1-c1ccc(Cl)cc1 [Example 1, N-(3-aminomethyl-pyridyl)-5-(4-chlorophenyl)-1-(2,4-dichlorophenyl)-4-methyl pyrazol-3-carboxamide]
